Source: PMC7887755, “Structure–Activity Relationships of Pyrazolo[1,5-a]pyrimidin-7(4H)-ones as Antitubercular Agents” (ACS Infectious Diseases, 2021)
Values after ≈ are worked out from the molar mass of the structure shown. Values joined by “and” are separate entries in the source; they are usually repeats but may differ in a detail not shown here. Identical values can stand only once.

Assays:
P19^R strain rv1751 V96L = assay type: cell-based, Mycobacterium tuberculosis
[1] = tested on: P19^R strain rv1751 L250Q; assay type: cell-based, Mycobacterium tuberculosis
[2] = tested on: P19^R strain rv1751 H97Y/N; assay type: cell-based, Mycobacterium tuberculosis
[3] = tested on: P19^R strain rv1751 L399W; assay type: cell-based, Mycobacterium tuberculosis
[4] = tested on: P19^R strain rv1751 A434T; assay type: cell-based, Mycobacterium tuberculosis
[5] = tested on: P19^R strain rv1751 P152S; assay type: cell-based, Mycobacterium tuberculosis
[6] = tested on: Mtb strain H37Rv cydC::aph; assay type: cell-based, Mycobacterium tuberculosis

| SMILES | MIC V96L (P19^R strain rv1751 V96L) [µM] | fold change V96L (P19^R strain rv1751 V96L) | MIC L250Q [1] [µM] | fold change L250Q [1] | MIC H97Y/N [2] [µM] | fold change H97Y/N [2] | MIC L399W [3] [µM] | fold change L399W [3] | MIC A434T [4] [µM] | fold change A434T [4] | MIC P152S [5] [µM] | fold change P152S [5] | MIC CydKO [6] [µM] | frequency of resistant clones (Mtb H37Rv) |
| --- | --- | --- | --- | --- | --- | --- | --- | --- | --- | --- | --- | --- | --- | --- |
| Cc1nn2c(=O)cc(-c3ccc(Cl)c(Cl)c3)[nH]c2c1-c1ccc(F)cc1 [Compound P24, 5-(3,4-Dichlorophenyl)-3-(4-fluorophenyl)-2-methylpyrazolo[1,5-a]pyrimidin-7(4H)-one] | 7.82 (≈ 3.04 µg/mL) | 5 | 6.26 (≈ 2.43 µg/mL) | 4 | 6.25 (≈ 2.43 µg/mL) | 4 | 18.8 (≈ 7.3 µg/mL) | 12 | 3.12 (≈ 1.21 µg/mL) | 2 | 3.90 (≈ 1.51 µg/mL) | 2.5 | – | – |
| Cc1nn2c(=O)cc(-c3ccccc3)[nH]c2c1-c1ccccc1 [Compound 1, 2-Methyl-3,5-diphenylpyrazolo[1,5-a]pyrimidin-7(4H)-one] | 2.3 (≈ 0.693 µg/mL) | 2 | 3.13 (≈ 0.943 µg/mL) | 2.6 | 1.56 (≈ 0.47 µg/mL) | 1.3 | 12.5 (≈ 3.77 µg/mL) | 10 | 1.56 (≈ 0.47 µg/mL) | 1.3 | 2.3 (≈ 0.693 µg/mL) | 2 | 12.5 (≈ 3.77 µg/mL) | – |
| NNC(=O)c1ccncc1 [INH, isoniazid, reference compound] | 0.04 (≈ 0.00549 µg/mL) | – | 0.04 (≈ 0.00549 µg/mL) | – | 0.04 (≈ 0.00549 µg/mL) | – | 0.04 (≈ 0.00549 µg/mL) | – | 0.04 (≈ 0.00549 µg/mL) | – | 0.04 (≈ 0.00549 µg/mL) | – | 0.30 (≈ 0.0411 µg/mL) | – |
| Cc1nn2c(=O)cc(-c3ccc(F)c(F)c3)[nH]c2c1-c1ccccc1 [Compound P19, 5-(3,4-Difluorophenyl)-2-methyl-3-phenylpyrazolo[1,5-a]pyrimidin-7(4H)-one] | 2.3 (≈ 0.776 µg/mL) | 3 | 2.3 (≈ 0.776 µg/mL) | 3 | 1.56 (≈ 0.526 µg/mL) | 2 | 12.5 (≈ 4.22 µg/mL) | 16 | 1.56 (≈ 0.526 µg/mL) | 2 | 1.56 (≈ 0.526 µg/mL) | 2 | 3.13 (≈ 1.06 µg/mL) | 3 × 10^–8 and 4 × 10^–9 |
| COc1ccc(-c2cc(=O)n3nc(C)c(-c4ccc(F)cc4)c3[nH]2)cc1 [Compound 4, 3-(4-Fluorophenyl)-5-(4-methoxyphenyl)-2-methylpyrazolo[1,5-a]pyrimidin-7(4H)-one, reference compound] | 2.3 (≈ 0.804 µg/mL) | 1.5 | 4.7 (≈ 1.64 µg/mL) | 3 | 1.56 (≈ 0.545 µg/mL) | 1 | 3.13 (≈ 1.09 µg/mL) | 2 | 2.3 (≈ 0.804 µg/mL) | 1.5 | 2.3 (≈ 0.804 µg/mL) | 1.5 | 9.40 (≈ 3.28 µg/mL) | – |
| O=c1cc(CC2CCCCC2)[nH]c2c(-c3ccc(Cl)cc3)cnn12 [Compound 2, 3-(4-Chlorophenyl)-5-(cyclohexylmethyl)pyrazolo[1,5-a]pyrimidin-7(4H)-one, reference compound] | 1.2 (≈ 0.41 µg/mL) | 3 | 1.2 (≈ 0.41 µg/mL) | 3 | 0.39 (≈ 0.133 µg/mL) | 1 | 0.39 (≈ 0.133 µg/mL) | 1 | 1.2 (≈ 0.41 µg/mL) | 3 | 1.2 (≈ 0.41 µg/mL) | 3 | 25.0 (≈ 8.55 µg/mL) | – |
